Broadly, the IC50 is the concentration needed to halve the response being measured. Read a high IC50 as lower potency. What is called Kb is the affinity of an antagonist, worked out from how it opposes an agonist. A lower Kb goes with a more potent antagonist.

The first experiment deals with Glutamate NMDA receptor. Description: Ability to displace [3H]L-689560 from NMDA receptor glycine site in rat brain membranes. Format: cell membranes.
Consider `N[C@H](Cc1cc(I)c(OCCc2ccccc2)c(I)c1)C(=O)O`, for which the IC50 was 510 nM.

`COC(=O)[C@H](N)Cc1cc(I)c(OCCc2ccc(O)cc2)c(I)c1` gave an IC50 of 100000 nM.

The molecule `CCOc1c(I)cc(C[C@@H](N)C(=O)O)cc1I` gave an IC50 of 1500 nM.

In turn, `N[C@H](Cc1cc(I)c(Oc2cc(I)c(O)c(I)c2)c(I)c1)C(=O)O` [DEXTROTHYROXINE] displayed an IC50 of 330 nM.

For the molecule `N[C@H](Cc1cc(I)c(OCCc2cccc(O)c2)c(I)c1)C(=O)O`, the IC50 turned out to be 350 nM.

For the molecule `N[C@H](Cc1ccc(OCCc2ccccc2)cc1)C(=O)O`, the concentration for half-maximal inhibition (IC50) was 100000 nM.

`N[C@H](Cc1cc(I)c(OCCc2ccncc2)c(I)c1)C(=O)O` yielded a half-maximal inhibitory concentration (IC50) of 460 nM.

`N[C@H](Cc1cc(I)c(O)c(I)c1)C(=O)O` showed an IC50 of 100000 nM.

Turning to `N[C@H](Cc1ccc(OCCc2ccccc2)c(I)c1)C(=O)O`, the IC50 is 7300 nM.

Molecule `N[C@@H](Cc1cc(I)c(OCCc2ccc(O)cc2)c(I)c1)C(=O)O` showed an IC50 above 100000 nM.

`N[C@H](Cc1cc(I)c(OCc2ccccc2)c(I)c1)C(=O)O`: the IC50 worked out at 790 nM.

Consider `CC(=O)N[C@H](Cc1cc(I)c(OCCc2ccc(O)cc2)c(I)c1)C(=O)O`, for which the IC50 was above 100000 nM.

`NC(Cc1cc(I)c(OCCc2ccc(O)cc2)c(I)c1)C(=O)O` (configuration not stated) showed an IC50 of 900 nM.

With `N[C@H](Cc1cc(I)c(Oc2ccc(O)cc2)c(I)c1)C(=O)O`, the IC50 worked out at 4100 nM.

The species entered for a further experiment is Rattus norvegicus. Description: In vitro antagonist potency was determined by blockade of NMDA- induced depolarizations on rat cortical slices. Format: functional.
Take `N[C@H](Cc1cc(I)c(OCCc2cccc(O)c2)c(I)c1)C(=O)O`: the Kb was 2500 nM.

The molecule `N[C@H](Cc1cc(I)c(OCCc2ccncc2)c(I)c1)C(=O)O` registered a Kb of 670 nM.

`N[C@H](Cc1cc(I)c(OCCc2ccc(O)cc2)c(I)c1)C(=O)O`: the Kb stood at 2200 nM.

(Values after ChEMBL document CHEMBL1152075, “Synthesis and SAR of diiodotyrosine-derived glycine-site N-methyl-D-aspartate receptor ligands” (Bioorg Med Chem Lett, 1996).)
